# Read-outs that look alike come from different tables or passages of the source.
# Biological target: hKIF18A (1-374) (Homo sapiens (Human), UniProt Q8NI77)
# Assay: Inhibition of KIF18A microtubule-dependent ATPase activity (ADP-Glo)
# [1] = KIF18A microtubule-dependent ATPase activity, biochemical assay
# Method: Biological Assays Inhibition of KIF18A Microtubule-Dependent ATPase Activity:
# Test compounds were plated in a 3× dilution scheme in a 384-well plate. Assay buffer: 80 mM PIPES (pH 6.9), 1 mM MgCl2, 75 mM KCl, 1 mM EGTA, 1 mM DTT, 0.01% BSA, 0.005% Tween-20, 1 μM Taxol in H2O. […] After incubation at room temperature for 30 min, 2.5 μL of microtubule mix was added [0.2 mg/mL pre-formed microtubules, 2.0 mM ATP in assay buffer], the plate was centrifuged for 30 s and then incubated at 28° C. for 60 min. 5 μL of Promega® ADP-Glo Max R1 was added, the plate was centrifuged for 30 s, and the mixture incubated for 4 h at room temperature. 10 μL of Promega® ADP-Glo Max R2 was added, the plate centrifuged for 30 s, and incubated for 60 min at room temperature. Luminescence was measured with an Envision plate reader, and % Inhibition was calculated for each well as: ([max−min]−[test−min])/[max−min]. IC50 values were calculated from concentration vs. % Inhibition data via a four-parameter variable slope model.
# hKIF18A (1-374), sequence (Q8NI77 whole entry, looked up): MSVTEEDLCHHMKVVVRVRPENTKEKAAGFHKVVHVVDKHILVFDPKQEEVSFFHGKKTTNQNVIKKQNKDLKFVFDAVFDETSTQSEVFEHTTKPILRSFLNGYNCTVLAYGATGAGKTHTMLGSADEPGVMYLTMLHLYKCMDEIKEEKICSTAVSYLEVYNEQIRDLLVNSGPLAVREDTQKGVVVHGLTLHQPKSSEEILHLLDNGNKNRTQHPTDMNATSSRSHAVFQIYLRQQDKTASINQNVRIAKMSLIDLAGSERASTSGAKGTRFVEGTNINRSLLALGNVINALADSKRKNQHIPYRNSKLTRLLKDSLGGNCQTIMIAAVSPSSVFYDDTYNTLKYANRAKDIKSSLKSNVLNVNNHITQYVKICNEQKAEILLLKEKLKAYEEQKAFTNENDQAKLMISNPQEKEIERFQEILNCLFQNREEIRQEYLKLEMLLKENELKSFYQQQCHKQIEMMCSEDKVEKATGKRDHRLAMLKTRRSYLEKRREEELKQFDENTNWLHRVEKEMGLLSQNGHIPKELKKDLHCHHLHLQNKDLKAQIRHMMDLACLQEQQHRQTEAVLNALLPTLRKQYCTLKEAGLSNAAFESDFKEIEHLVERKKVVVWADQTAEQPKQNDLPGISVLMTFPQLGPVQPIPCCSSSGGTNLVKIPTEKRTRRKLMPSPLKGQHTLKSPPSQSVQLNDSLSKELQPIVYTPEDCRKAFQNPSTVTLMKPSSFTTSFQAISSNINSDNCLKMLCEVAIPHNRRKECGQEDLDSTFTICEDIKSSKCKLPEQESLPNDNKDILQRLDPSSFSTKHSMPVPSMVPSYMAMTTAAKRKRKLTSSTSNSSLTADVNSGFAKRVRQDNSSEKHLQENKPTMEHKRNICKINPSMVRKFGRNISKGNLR
# hKIF18A (1-374), sequence (Q2XVP4 whole entry partner, looked up): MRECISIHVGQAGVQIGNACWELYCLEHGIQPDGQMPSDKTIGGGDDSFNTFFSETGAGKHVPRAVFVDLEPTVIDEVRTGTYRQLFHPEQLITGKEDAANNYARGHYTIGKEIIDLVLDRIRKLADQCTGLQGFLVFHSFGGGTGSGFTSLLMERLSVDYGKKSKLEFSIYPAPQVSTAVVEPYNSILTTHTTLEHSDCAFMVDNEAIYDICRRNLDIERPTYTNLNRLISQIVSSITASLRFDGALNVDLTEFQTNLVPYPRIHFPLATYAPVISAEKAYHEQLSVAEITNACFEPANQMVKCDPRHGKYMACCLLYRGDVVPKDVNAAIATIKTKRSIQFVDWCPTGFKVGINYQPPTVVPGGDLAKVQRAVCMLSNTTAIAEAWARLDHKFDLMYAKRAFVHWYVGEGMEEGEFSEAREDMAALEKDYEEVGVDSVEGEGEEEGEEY
# hKIF18A (1-374), sequence (P02554 whole entry partner, looked up): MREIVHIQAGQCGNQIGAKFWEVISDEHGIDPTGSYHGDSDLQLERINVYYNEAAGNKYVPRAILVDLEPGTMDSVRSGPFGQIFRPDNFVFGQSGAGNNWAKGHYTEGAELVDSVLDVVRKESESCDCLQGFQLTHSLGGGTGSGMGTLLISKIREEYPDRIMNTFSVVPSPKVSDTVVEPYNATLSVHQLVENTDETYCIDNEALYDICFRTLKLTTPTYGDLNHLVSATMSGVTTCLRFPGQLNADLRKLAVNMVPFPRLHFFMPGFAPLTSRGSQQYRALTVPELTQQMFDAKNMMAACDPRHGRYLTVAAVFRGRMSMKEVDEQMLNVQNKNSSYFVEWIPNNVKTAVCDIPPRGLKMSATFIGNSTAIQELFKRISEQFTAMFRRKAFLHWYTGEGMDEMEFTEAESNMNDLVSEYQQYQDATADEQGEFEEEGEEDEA
Structure (SMILES),IC50 [1] [nM],IC50 [nM]
"CS(=O)(=O)Nc1ccc2c(c1)C1(CCC3(CC3)CC1)CN2C(=O)c1cccc(CN2C[C@@H]3[C@H](C2)C3(F)F)c1 [Compound 358, N-(1″-(3-((6,6-difluoro-3-azabicyclo[3.1.0]hexan-3-yl)methyl)benzoyl)dispiro[cyclopropane-1,1′-cyclohexane-4′,3″-indolin]-5″- yl)methanesulfonamide]",28,–
"CC1(C(O)c2cccc(C(=O)N3CC4(CCC5(CC5)CC4)c4cc(NS(C)(=O)=O)ccc43)c2)CCC1 (stereo not shown) [Compound 354, N-(1″-(3-(hydroxy(1-methylcyclobutyl)methyl)benzoyl)dispiro[cyclopropane-1,1′-cyclohexane-4′,3″-indolin]-5″- yl)methanesulfonamide]",14,–
CC(C)(C)NS(=O)(=O)c1cccc(C(=O)N2C[C@]3(CC[C@@H](C(F)F)CC3)c3cc(NS(C)(=O)=O)ccc32)c1 [Compound 162b],37,–
"CC(C)(CO)NS(=O)(=O)c1cccc(C(=O)N2CC3(CCC4(CC4)CC3)c3cc(NS(C)(=O)=O)ccc32)c1 [Compound 220, N-(1-hydroxy-2-methylpropan-2-yl)-3-(5″- (methylsulfonamido)dispiro[cyclopropane-1,1′-cyclohexane-4′,3″-indoline]-1″-carbonyl)benzenesulfonamide]",25,–
"CCC(CC)NS(=O)(=O)c1cccc(C(=O)N2CC3(CCC4(CC4)CC3)c3cc(NS(C)(=O)=O)ccc32)c1 [Compound 198, 3-(5″- (methylsulfonamido)dispiro[cyclopropane-1,1′-cyclohexane-4′,3″-indoline]-1″-carbonyl)-N-(pentan-3-yl)benzenesulfonamide]",26,–
"CC(C)(C)NS(=O)(=O)c1cc(C(=O)N2CC3(CCCCC3)c3cc(NS(=O)(=O)CCO)ccc32)cs1 [Compound 289, N-(tert-butyl)-4-(5′-((2-hydroxyethyl)sulfonamido)spiro [cyclohexane-1,3′-indoline]-1′-carbonyl)thiophene-2-sulfonamide]",17,–
"CS(=O)(=O)Nc1ccc2c(c1)C1(CCC3(CC3)CC1)CN2C(=O)c1ccnc(C(O)C2CCCC2)c1 (stereo not shown) [Compound 316, N-(1″-(2-(cyclopentyl(hydroxy)methyl)isonicotinoyl)dispiro[cyclopropane-1,1′-cyclohexane-4′,3″-indolin]-5″- yl)methanesulfonamide]",18,–
"CC1(NS(=O)(=O)c2cccc(C(=O)N3CC4(CCC5(CC5)CC4)c4cc(NS(C)(=O)=O)ccc43)c2)COC1 [Compound 206, N-(3-methyloxetan-3-yl)-3-(5″- (methylsulfonamido)dispiro[cyclopropane-1,1′-cyclohexane-4′,3″-indoline]-1″-carbonyl)benzenesulfonamide]",27,–
"C[C@H](c1cccc(C(=O)N2CC3(CCC4(CC4)CC3)c3cc(NS(C)(=O)=O)ccc32)c1)N1CCC(F)(F)CC1 (single isomer, unassigned) [Compound 341b]",24,–
"CC1CCC2(C1)CN(C(=O)c1cccc(S(=O)(=O)N3CCC(F)(F)CC3)c1)c1ccc(NS(C)(=O)=O)cc12 (stereo not shown) [Compound 23, N-(1′-(3-((4,4-difluoropiperidin-1-yl)sulfonyl)benzoyl)-3-methylspiro[cyclopentane-1,3′-indolin]-5′-yl)methanesulfonamide]",23,–
"CCS(=O)(=O)Nc1ccc2c(c1)C1(CCC(F)(F)CC1)CN2C(=O)c1cccc(S(=O)(=O)NC(C)(C)C)c1 [Compound 327, N-(tert-butyl)-3-(5′-(ethylsulfonamido)-4,4-difluorospiro[cyclohexane-1,3′-indoline]-1′-carbonyl)benzenesulfonamide]",44,–
"CC(C)N(C)S(=O)(=O)c1cccc(C(=O)N2CC3(CCCCC3)c3cc(NS(C)(=O)=O)ccc32)c1 [Compound 55, N-isopropyl-N-methyl-3-(5′-(methylsulfonamido)spiro[cyclohexane-1,3′-indoline]-1′-carbonyl)benzenesulfonamide]",140,–
"CN(C)S(=O)(=O)c1cccc(C(=O)N2CC3(CCCCC3)c3cc(NS(C)(=O)=O)ccc32)c1 [Compound 42, N,N-dimethyl-3-(5′-(methylsulfonamido)spiro[cyclohexane-1,3′-indoline]-1′-carbonyl)benzenesulfonamide]",1300,–
"C[C@H]1CCN(S(=O)(=O)c2cccc(C(=O)N3CC4(CCC5(CC5)CC4)c4cc(NS(C)(=O)=O)ccc43)c2)C1 [(S)-Compound 249, (S)-N-(1″-(3-((3-methylpyrrolidin-1-yl)sulfonyl)benzoyl)dispiro[cyclopropane-1,1′-cyclohexane-4′,3″-indolin]-5″- yl)methanesulfonamide]",–,16
"CC(C)(C)[C@@H](O)c1ccc(C(=O)N2CC3(CCC4(CC4)CC3)c3cc(NS(C)(=O)=O)ccc32)o1 (single isomer, unassigned) [Compound 373a]",200,–
"CC1(NS(=O)(=O)c2cccc(C(=O)N3CC4(CCC5(CC5)CC4)c4cc(NS(C)(=O)=O)ccc43)c2)CC1 [Compound 216, N-(1-methylcyclopropyl)-3-(5″- (methylsulfonamido)dispiro[cyclopropane-1,1′-cyclohexane-4′,3″-indoline]-1″-carbonyl)benzenesulfonamide]",9.3,–

Structure (SMILES),IC50 [1] [nM],IC50 [nM]
"CCS(=O)(=O)Nc1ccc2c(c1)C1(CCC3(CC3)CC1)CN2C(=O)c1ccc([C@H](O)C(C)(C)C)o1 (single isomer, unassigned) [Compound 372a]",37,–
CS(=O)(=O)Nc1ccc2c(c1)[C@]1(CC[C@H](C(F)F)CC1)CN2C(=O)c1cccc(S(=O)(=O)NC23CC(C2)C3)c1 [Compound 336b],17,–
"CC(C)(C)NS(=O)(=O)c1cc(F)cc(C(=O)N2CC3(CCCCC3)c3cc(NS(C)(=O)=O)ccc32)c1 [Compound 95, N-(tert-butyl)-3-fluoro-5-(5′-(methylsulfonamido)spiro[cyclohexane-1,3′-indoline]-1′-carbonyl)benzenesulfonamide]",170,–
"CS(=O)(=O)Nc1ccc2c(c1)C1(CCC3(CC3)CC1)CN2C(=O)c1csc(S(=O)(=O)N2CC3(CCC3)C2)c1 [Compound 279, N-(1″-(5-((2-azaspiro[3.3]heptan-2-yl)sulfonyl)thiophene-3-carbonyl)dispiro[cyclopropane-1,1′-cyclohexane-4′,3″-indolin]-5″- yl)methanesulfonamide]",6.3,–
"O=C(c1cccc(S(=O)(=O)N2CCCCC2)c1)N1CC2(CCCC2)c2c(F)cccc21 [Compound 1′, (4′-fluorospiro[cyclopentane-1,3′-indolin]-1′-yl)(3-(piperidin-1-ylsulfonyl)phenyl)methanone]",2600,–
"CC1CCN(S(=O)(=O)c2cccc(C(=O)N3CC4(CCCCC4)c4cc(NS(C)(=O)=O)ccc43)c2)C1 (stereo not shown) [Compound 71, N-(1′-(3-((3-methylpyrrolidin-1-yl)sulfonyl)benzoyl)spiro[cyclohexane-1,3′-indolin]-5′-yl)methanesulfonamide]",86,–
"CS(=O)(=O)Nc1ccc2c(c1)C1(CCC3(CC3)CC1)CN2C(=O)c1cccc(C(O)C2CCC2)c1 (stereo not shown) [Compound 313, N-(1″-(3-(cyclobutyl(hydroxy)methyl)benzoyl)dispiro[cyclopropane-1,1′-cyclohexane-4′,3″-indolin]-5″- yl)methanesulfonamide]",20,–
"CS(=O)(=O)Nc1ccc2c(c1)C1(CCCCC1)CN2C(=O)c1cccc(S(=O)(=O)NC2CC2)c1 [Compound 46, N-cyclopropyl-3-(5′-(methylsulfonamido)spiro[cyclohexane-1,3′-indoline]-1′-carbonyl)benzenesulfonamide]",120,–
"CC1CCN(S(=O)(=O)c2cccc(C(=O)N3CC4(CCC5(CC5)CC4)c4cc(NS(C)(=O)=O)ccc43)c2)C1 (stereo not shown) [Compound 249, N-(1″-(3-((3-methylpyrrolidin-1-yl)sulfonyl)benzoyl)dispiro[cyclopropane-1,1′-cyclohexane-4′,3″-indolin]-5″- yl)methanesulfonamide]",9,–
"CS(=O)(=O)Nc1ccc2c(c1)C1(CCC3(CC3)CC1)CN2C(=O)c1ccc(F)c(S(=O)(=O)NC23CC(C2)C3)c1 [Compound 337, N-(bicyclo[1.1.1]pentan-1-yl)-2-fluoro-5-(5″-(methylsulfonamido)dispiro[cyclopropane-1,1′-cyclohexane-4′,3″-indoline]-1″- carbonyl)benzenesulfonamide]",8.8,–
"CS(=O)(=O)Nc1ccc2c(c1)C1(CCC3(CC3)CC1)CN2C(=O)c1cccc(CN2CCC(F)(F)C2)c1 [Compound 349, N-(1″-(3-((3,3-difluoropyrrolidin-1-yl)methyl)benzoyl)dispiro [cyclopropane-1,1′-cyclohexane-4′,3″-indolin]-5″- yl)methanesulfonamide]",45,–
"CS(=O)(=O)Nc1ccc2c(c1)C1(CCC3(CC3)CC1)CN2C(=O)c1cccc(C(O)C2CC(F)(F)C2)c1 (stereo not shown) [Compound 351, N-(1″-(3-((3,3-difluorocyclobutyl)(hydroxyj)methyl)benzoyl)dispiro[cyclopropane-1,1′-cyclohexane-4′,3″-indolin]-5″- yl)methanesulfonamide]",8.8,–
"CC(C)(C)NS(=O)(=O)c1csc(C(=O)N2CC3(CCC4(CC4)CC3)c3cc(NS(C)(=O)=O)ccc32)c1 [Compound 268, N-(tert-butyl)-5-(5″- (methylsulfonamido)dispiro[cyclopropane-1,1′-cyclohexane-4′,3″-indoline]-1″-carbonyl)thiophene-3-sulfonamide]",77,–
"CC1CCC(NS(=O)(=O)c2cccc(C(=O)N3CC4(CCC5(CC5)CC4)c4cc(NS(C)(=O)=O)ccc43)c2)C1 (stereo not shown) [Compound 285, N-(3-methylcyclopentyl)-3-(5″- (methylsulfonamido)dispiro[cyclopropane-1,1′-cyclohexane-4′,3″-indoline]-1″-carbonyl)benzenesulfonamide]",11,–
"CS(=O)(=O)Nc1ccc2c(c1)C1(CCC3(CC3)CC1)CN2C(=O)c1cccc(S(=O)(=O)NC2C=CCCC2)c1 (stereo not shown) [Compound 196, N-(cyclohex-2-en-1-yl)-3-(5″- (methylsulfonamido)dispiro[cyclopropane-1,1′-cyclohexane-4′,3″-indoline]-1″-carbonyl)benzenesulfonamide]",10,–
